Test system: 519858-162-T-J1-PDC complex spheroid viability
Assay: Anticancer human tumor 519858-162-T-J1-PDC patient-derived colon adenocarcinoma cell line growth inhibition [GQUAD]
Conditions: for IC50: curve of first compound; for viability, T/C: stronger effect = lower value
How it was run: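 Multi-cell-type spheroids of tumor cells with HUVEC and mesenchymal stem cells, treated with drug combinations. Concentrations descend in half-log steps from near clinical Cmax, or from 10 microM where Cmax is unknown; viability read-out.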

[1] = second compound 0.0316 µM, first compound 0.0316 µM
[2] = second compound 0.0316 µM, first compound 0.1 µM
[3] = second compound 0.0316 µM, first compound 0.316 µM
[4] = second compound 0.0316 µM, first compound 1 µM
[5] = second compound 0.0316 µM, first compound 3.16 µM
[6] = second compound 0.0316 µM, first compound 10 µM
[7] = second compound 0.1 µM, first compound 0.0316 µM
[8] = second compound 0.1 µM, first compound 0.1 µM
[9] = second compound 0.1 µM, first compound 0.316 µM
[10] = second compound 0.1 µM, first compound 1 µM
[11] = second compound 0.1 µM, first compound 3.16 µM
[12] = second compound 0.1 µM, first compound 10 µM
[13] = second compound 0.316 µM, first compound 0.0316 µM
[14] = second compound 0.316 µM, first compound 0.1 µM
[15] = second compound 0.316 µM, first compound 0.316 µM
[16] = second compound 0.316 µM, first compound 1 µM
[17] = second compound 0.316 µM, first compound 3.16 µM
[18] = second compound 0.316 µM, first compound 10 µM
[19] = second compound 1 µM, first compound 0.0316 µM
[20] = second compound 1 µM, first compound 0.1 µM
[21] = second compound 1 µM, first compound 0.316 µM
[22] = second compound 1 µM, first compound 1 µM
[23] = second compound 1 µM, first compound 3.16 µM
[24] = second compound 1 µM, first compound 10 µM
[25] = second compound 3.16 µM, first compound 0.0316 µM
[26] = second compound 3.16 µM, first compound 0.1 µM
[27] = second compound 3.16 µM, first compound 0.316 µM
[28] = second compound 3.16 µM, first compound 1 µM
[29] = second compound 3.16 µM, first compound 3.16 µM
[30] = second compound 3.16 µM, first compound 10 µM
[31] = second compound 10 µM, first compound 0.0316 µM
[32] = second compound 10 µM, first compound 0.1 µM
[33] = second compound 10 µM, first compound 0.316 µM
[34] = second compound 10 µM, first compound 1 µM
[35] = second compound 10 µM, first compound 3.16 µM
[36] = second compound 10 µM, first compound 10 µM
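Further: spheroids exposed to compounds for 7 days.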
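Wherever viability, T/C is given: 100% = DMSO vehicle control viability.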

C=CC(=O)N1CCN(c2nc(=O)n(-c3c(C)ccnc3C(C)C)c3nc(-c4c(O)cccc4F)c(F)cc23)C(C)C1 (stereo unspecified) + Cc1[nH]c2ccc(F)cc2c1-c1nc2c3cccnc3c3ncccc3c2[nH]1
IC50 (second compound 0.0316 µM): > 10 µM | IC50 (second compound 0.1 µM): > 10 µM | IC50 (second compound 0.316 µM): > 10 µM | IC50 (second compound 1 µM): > 10 µM | IC50 (second compound 3.16 µM): > 10 µM | IC50 (second compound 10 µM): < 0.0316 µM | viability, T/C [1]: 80.3% | viability, T/C [2]: 88.6% | viability, T/C [3]: 65.3% | viability, T/C [4]: 81.8% | viability, T/C [5]: 90.9% | viability, T/C [6]: 71.1% | viability, T/C [7]: 130% | viability, T/C [8]: 96.3% | viability, T/C [9]: 104% | viability, T/C [10]: 89.7% | viability, T/C [11]: 81.4% | viability, T/C [12]: 82.2% | viability, T/C [13]: 76.3% | viability, T/C [14]: 95.4% | viability, T/C [15]: 62.8% | viability, T/C [16]: 73% | viability, T/C [17]: 74.7% | viability, T/C [18]: 97.5% | viability, T/C [19]: 97.3% | viability, T/C [20]: 75.4% | viability, T/C [21]: 94.8% | viability, T/C [22]: 85.8% | viability, T/C [23]: 79.3% | viability, T/C [24]: 69.3% | viability, T/C [25]: 59.6% | viability, T/C [26]: 73.6% | viability, T/C [27]: 79.5% | viability, T/C [28]: 46.4% | viability, T/C [29]: 72.1% | viability, T/C [30]: 53.5% | viability, T/C [31]: 39.9% | viability, T/C [32]: 44% | viability, T/C [33]: 65.6% | viability, T/C [34]: 62.8% | viability, T/C [35]: 52.5% | viability, T/C [36]: 80.4%

CC(C)n1c(=O)n(C)c2cnc3cc(F)c(-c4ccc(OCCCN5CCCCC5)nc4)cc3c21 + Cc1[nH]c2ccc(F)cc2c1-c1nc2c3cccnc3c3ncccc3c2[nH]1
IC50 (second compound 0.0316 µM): > 10 µM | IC50 (second compound 0.1 µM): > 10 µM | IC50 (second compound 0.316 µM): > 10 µM | IC50 (second compound 1 µM): > 10 µM | IC50 (second compound 3.16 µM): > 10 µM | IC50 (second compound 10 µM): > 10 µM | viability, T/C [1]: 97.7% | viability, T/C [2]: 124% | viability, T/C [3]: 114% | viability, T/C [4]: 107% | viability, T/C [5]: 78.2% | viability, T/C [6]: 67.9% | viability, T/C [7]: 77.5% | viability, T/C [8]: 96.8% | viability, T/C [9]: 86.6% | viability, T/C [10]: 91.3% | viability, T/C [11]: 89.7% | viability, T/C [12]: 121% | viability, T/C [13]: 91.5% | viability, T/C [14]: 94.2% | viability, T/C [15]: 82% | viability, T/C [16]: 101% | viability, T/C [17]: 84.8% | viability, T/C [18]: 80.7% | viability, T/C [19]: 79.2% | viability, T/C [20]: 85.5% | viability, T/C [21]: 101% | viability, T/C [22]: 119% | viability, T/C [23]: 96.4% | viability, T/C [24]: 69.5% | viability, T/C [25]: 85.9% | viability, T/C [26]: 75.6% | viability, T/C [27]: 75.9% | viability, T/C [28]: 56.3% | viability, T/C [29]: 50.5% | viability, T/C [30]: 67.3% | viability, T/C [31]: 65.8% | viability, T/C [32]: 73.8% | viability, T/C [33]: 56.8% | viability, T/C [34]: 51.4% | viability, T/C [35]: 54.9% | viability, T/C [36]: 53%

CC1COCCN1c1cc(C2(S(C)(=N)=O)CC2)nc(-c2ccnc3[nH]ccc23)n1 (stereo unspecified) + Cc1[nH]c2ccc(F)cc2c1-c1nc2c3cccnc3c3ncccc3c2[nH]1
IC50 (second compound 0.0316 µM): > 10 µM | IC50 (second compound 0.1 µM): > 10 µM | IC50 (second compound 0.316 µM): > 10 µM | IC50 (second compound 1 µM): > 10 µM | IC50 (second compound 3.16 µM): > 10 µM | IC50 (second compound 10 µM): > 10 µM | viability, T/C [1]: 87.1% | viability, T/C [2]: 91.3% | viability, T/C [3]: 96% | viability, T/C [4]: 113% | viability, T/C [5]: 82.8% | viability, T/C [6]: 81.3% | viability, T/C [7]: 68.2% | viability, T/C [8]: 106% | viability, T/C [9]: 75.4% | viability, T/C [10]: 73.6% | viability, T/C [11]: 91.7% | viability, T/C [12]: 79.3% | viability, T/C [13]: 121% | viability, T/C [14]: 111% | viability, T/C [15]: 104% | viability, T/C [16]: 87.8% | viability, T/C [17]: 67.3% | viability, T/C [18]: 96.2% | viability, T/C [19]: 71.8% | viability, T/C [20]: 81.6% | viability, T/C [21]: 75.8% | viability, T/C [22]: 73.7% | viability, T/C [23]: 61.4% | viability, T/C [24]: 75.3% | viability, T/C [25]: 74.8% | viability, T/C [26]: 79.5% | viability, T/C [27]: 87% | viability, T/C [28]: 55.6% | viability, T/C [29]: 73.2% | viability, T/C [30]: 54.6% | viability, T/C [31]: 65.2% | viability, T/C [32]: 74.7% | viability, T/C [33]: 55% | viability, T/C [34]: 60.2% | viability, T/C [35]: 67.8% | viability, T/C [36]: 44.1%

Source: PubChem BioAssay AID2060507 (Molecular Pharmacology Branch, DTP, NCI, 2025)
